# From ChEMBL document CHEMBL5149962, “Targeting KRAS mutant cancers by preventing signaling transduction in the MAPK pathway” (Eur J Med Chem, 2021)
# Tests used:
# [1] = Competitive binding of mammalian GGTase-1 expressed in Sf9 cells assessed as inhibition of 3H-GGPP binding to RAS using Ras-CVLL as substrate incubated for 10 mins; design: species or system Mammalia
# [2] = Inhibition of mammalian GGTase-1 expressed in Sf9 cells using wildtype His-tagged RAS-CVLL as substrate assessed as inhibition of substrate plasma membrane localisation; format: cell membranes, Mammalia
# [3] = Binding affinity to human FPTase assessed as inhibition constant
# [4] = tested on: NIH3T3; assay: Antitumor activity against mouse NIH3T3 cells transfected with KRAS4B xenografted nude mouse assessed as inhibition of tumor growth at 35 mg/kg, ip administered in the presence of FTI-276 relative to control; format: functional; design: scale not given: the % may be the effect or the level left
# [5] = tested on: NIH3T3; assay: Antitumor activity against mouse NIH3T3 cells transfected with H-Ras CVLS xenografted nude mouse assessed as inhibition of tumor growth at 70 mg/kg, ip administered once daily relative to control; format: functional; design: scale not given: the % may be the effect or the level left
# [6] = tested on: Calu-1; assay: Antitumor activity against human Calu-1 cells transfected with KRAS mutant xenografted nude mouse assessed as inhibition of tumor growth at 70 mg/kg, ip administrated once daily measure for 40 to 80 days relative to control; format: functional; design: scale not given: the % may be the effect or the level left; settings: time 40-80 day
# [7] = biological target: Protein farnesyltransferase subunit beta (Homo sapiens, UniProt P49356); assay: Displacement of M [3H] farnesyl diphosphate from human PFTase expressed in Escherichia coli
# Protein farnesyltransferase subunit beta, sequence (P49356 whole entry): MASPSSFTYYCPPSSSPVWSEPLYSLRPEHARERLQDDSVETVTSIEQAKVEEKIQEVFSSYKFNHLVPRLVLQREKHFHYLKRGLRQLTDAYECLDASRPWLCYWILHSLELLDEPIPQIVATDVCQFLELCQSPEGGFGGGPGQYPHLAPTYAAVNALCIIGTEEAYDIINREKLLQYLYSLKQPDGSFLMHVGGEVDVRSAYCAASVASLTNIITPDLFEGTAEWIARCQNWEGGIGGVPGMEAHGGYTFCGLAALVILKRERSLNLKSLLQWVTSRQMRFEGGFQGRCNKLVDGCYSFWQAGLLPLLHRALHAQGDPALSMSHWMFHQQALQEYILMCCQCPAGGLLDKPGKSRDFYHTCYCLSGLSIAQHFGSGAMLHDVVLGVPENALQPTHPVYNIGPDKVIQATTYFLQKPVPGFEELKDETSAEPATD
# [8] = Inhibition of GDP-tagged human RAS (1 to 166 residue) incubated for 20 mins by using Centricon-10 micro concentrators analysis
# [9] = Inhibition of HRAS […] mutant (unknown origin) expressed in mouse NIH3T3 cells assessed as inhibition of post-translational modification processing; format: cell-based, Homo sapiens
# [10] = biological target: GTPase KRas (Homo sapiens, UniProt P01116, G12V); assay: Inhibition of KRAS G12V mutant (unknown origin) expressed in mouse NIH3T3 cells assessed as inhibition of post-translational modification processing; format: cell-based
# GTPase KRas, sequence (P01116 whole entry G12V): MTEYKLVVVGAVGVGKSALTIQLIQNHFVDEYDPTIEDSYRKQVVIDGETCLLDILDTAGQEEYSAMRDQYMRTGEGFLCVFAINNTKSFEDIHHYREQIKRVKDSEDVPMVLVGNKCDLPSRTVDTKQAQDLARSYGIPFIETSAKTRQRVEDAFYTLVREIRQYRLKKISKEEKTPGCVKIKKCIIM
# [11] = tested on: NCI-H460; assay: Cytotoxicity against human NCI-H460 cells harboring KRAS […] mutant assessed as reduction in cell viability measured after 48 hrs by MTT assay; format: functional, cell-based; settings: NCI-H460, 48 h
# [12] = tested on: MIA PaCa-2; assay: Cytotoxicity against human MIA PaCa-2 cells harboring KRAS G12C mutant assessed as reduction in cell viability measured after 48 hrs by MTT assay; format: functional, cell-based; settings: MIA PaCa-2, 48 h
# [13] = tested on: SW-620; assay: Cytotoxicity against human SW-620 cells harboring KRAS G12V mutant assessed as reduction in cell viability measured after 48 hrs by MTT assay; format: functional
# [14] = tested on: HCT-116; assay: Cytotoxicity against human HCT-116 cells harboring KRAS G13D mutant assessed as reduction in cell viability measured after 48 hrs by MTT assay; format: functional, cell-based; settings: HCT-116, 48 h
# [15] = tested on: PANC-1; assay: Cytotoxicity against human PANC-1 cells harboring KRAS G12D mutant assessed as reduction in cell viability measured after 48 hrs by MTT assay; format: functional, cell-based; settings: PANC-1, 48 h
# [16] = tested on: MDA-MB-231; assay: Cytotoxicity against human MDA-MB-231 cells harboring KRAS G13D mutant assessed as reduction in cell viability measured after 48 hrs by MTT assay; format: functional, cell-based; settings: MDA-MB-231, 48 h
# [17] = tested on: HT-1080; assay: Antitumor activity against human HT-1080 cells xenografted in BALB/c nude mouse assessed as reduction in tumor size at 100 mg/kg measured twice a week for 21 days relative to control; format: functional; design: scale not given: the % may be the effect or the level left; settings: time 21 day
# [18] = tested on: HCT-116; assay: Antitumor activity against human HCT-116 cells xenografted in BALB/c nude mouse assessed as reduction in tumor size at 100 mg/kg measured twice a week for 21 days relative to control; format: functional; design: scale not given: the % may be the effect or the level left; settings: time 21 day
# [19] = Antiproliferative activity against human Hs578Bst cells harboring HRAS mutant incubated for 48 hrs by MTT assay; format: functional, cell-based
# [20] = tested on: RPMI-8226; assay: Induction of apoptosis in human RPMI-8226 cells harboring KRAS mutant assessed as reduction in cell viability measured after 48 hrs by Annexin V-FITC staining based flow cytometry analysis; format: functional; settings: RPMI-8226, 48 h
# [21] = tested on: MCF-10A; assay: Antiproliferative activity against human MCF-10A cells harboring HRAS mutant incubated for 48 hrs by MTT assay; format: functional, cell-based
# [22] = tested on: MDA-MB-231; assay: Antiproliferative activity against human MDA-MB-231 cells harboring HRAS mutant incubated for 48 hrs by MTT assay; format: functional, cell-based; settings: MDA-MB-231, 48 h
# [23] = Induction of apoptosis in human U266B cells harboring wild type RAS mutant assessed as reduction in cell viability measured after 48 hrs by Annexin V-FITC staining based flow cytometry analysis; format: functional
# [24] = tested on: NCI-H929; assay: Induction of apoptosis in human NCI-H929 cells harboring NRAS mutant assessed as reduction in cell viability measured after 48 hrs by Annexin V-FITC staining based flow cytometry analysis; format: functional
# [25] = tested on: HT-29; assay: Cytotoxicity against human HT-29 cells assessed as cell growth inhibition after 72 hrs in presence of doxorubicin by MTT assay; format: functional, cell-based; settings: HT-29, 72 h
# [26] = Antiproliferative activity against human cancer cell lines harboring KRAS mutation assessed as reduction in cell viability; format: functional, cell-based
# [27] = tested on: HT-29; assay: Cytotoxicity against human HT-29 cells assessed as cell growth inhibition after 72 hrs by MTT assay; format: functional, cell-based; settings: HT-29, 72 h
# [28] = biological target: GTPase NRas (Homo sapiens, UniProt P01111); assay: Binding affinity to NRAS (unknown origin) assessed as inhibition constant
# GTPase NRas, sequence (P01111 whole entry): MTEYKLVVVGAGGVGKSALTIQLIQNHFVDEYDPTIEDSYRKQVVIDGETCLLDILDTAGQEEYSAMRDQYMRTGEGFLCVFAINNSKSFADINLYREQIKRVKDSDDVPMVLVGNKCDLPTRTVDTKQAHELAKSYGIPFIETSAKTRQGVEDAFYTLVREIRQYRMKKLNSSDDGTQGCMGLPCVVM
# [29] = biological target: GTPase HRas (Homo sapiens, UniProt P01112); assay: Binding affinity to HRAS (unknown origin) assessed as inhibition constant
# GTPase HRas, sequence (P01112 whole entry): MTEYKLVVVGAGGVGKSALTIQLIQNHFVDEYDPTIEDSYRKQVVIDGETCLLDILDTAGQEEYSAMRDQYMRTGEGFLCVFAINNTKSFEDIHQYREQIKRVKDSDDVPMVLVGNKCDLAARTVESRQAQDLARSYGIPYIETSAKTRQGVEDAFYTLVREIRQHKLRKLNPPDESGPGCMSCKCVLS
# [30] = tested on: A549; assay: Cytotoxicity against human A549 cells assessed as cell growth inhibition after 72 hrs by MTT assay; format: functional, cell-based; settings: A549, 72 h
# [31] = tested on: A549; assay: Cytotoxicity against human A549 cells assessed as cell growth inhibition after 72 hrs in presence of doxorubicin by MTT assay; format: functional, cell-based; settings: A549, 72 h
# [32] = Antiproliferative activity against human cancer cell lines harboring wild type RAS mutation assessed as reduction in cell viability; format: functional, cell-based
# [33] = AUC in cynomolgus monkey; format: ADME, Macaca fascicularis; settings: in vivo
# [34] = Cmax in cynomolgus monkey; format: ADME, Macaca fascicularis; settings: in vivo
# [35] = Reduction in phosphor-ERK mutant level in tumor of human PANC-1 cells xenografted nude mouse at 40 mg/kg, po administered daily for 10 days by immunoblot analysis relative to control; format: functional; design: scale not given: the % may be the effect or the level left; settings: time 10 day
# [36] = tested on: HT-29; assay: Antiproliferative activity against human HT-29 cells assessed as reduction in cell growth at 100 uM measured after 7 days relative to control; format: functional; design: scale not given: the % may be the effect or the level left; settings: time 7 day
# [37] = Reduction in KRAS mutant level in tumor of human PANC-1 cells xenografted nude mouse at 40 mg/kg, po administered daily for 10 days by immunoblot analysis relative to control; format: functional; design: scale not given: the % may be the effect or the level left; settings: time 10 day
# [38] = tested on: SK-MES-1; assay: Antitumor activity against human SK-MES-1 HTB-58 cells xenografted in athymic nude mouse assessed as reduction in tumour volume at 10 mg/kg, ip administered once daily measured after 24 days; format: functional; settings: time 24 day
# [39] = tested on: Rat1; assay: Inhibition of cell growth in rat Rat1 cells transfected with HRAS; format: functional, cell-based
# [40] = Toxicity in nude mouse xenografted with human PANC-1 cells assessed as reduction in body weight at 40 mg/kg, po administered daily for 10 days relative to control; format: organism-based; design: scale not given: the % may be the effect or the level left; settings: in vivo, 240 h, time 10 day
# [41] = tested on: A549; assay: Antitumor activity against human A549 cells xenografted in athymic nude mouse assessed as reduction in tumour volume at 10 mg/kg, ip administered once daily measured after 24 days relative to control; format: functional; design: scale not given: the % may be the effect or the level left; settings: time 24 day
# [42] = Reduction in KRAS-GTP mutant level in tumor of human PANC-1 cells xenografted nude mouse at 40 mg/kg, po administered daily for 10 days by immunoblot analysis relative to control; format: functional; design: scale not given: the % may be the effect or the level left; settings: time 10 day
# [43] = tested on: A549; assay: Antitumor activity against human A549 cells xenografted in athymic nude mice assessed as inhibition of tumor growth at 50 mg/kg, po administered daily measured after 16 days relative to control; format: functional; design: scale not given: the % may be the effect or the level left; settings: time 16 day
# [44] = tested on: NCI-H441; assay: Antiproliferative activity against human NCI-H441 cells harboring KRAS 12 mutation assessed as inhibition of cell growth incubated for 4 to 7 days; format: functional, cell-based
# [45] = tested on: SU.86.86; assay: Antiproliferative activity against human SU-86-86 cells harboring KRAS 12 mutation assessed as inhibition of cell growth incubated for 4 to 7 days; format: functional, cell-based
# [46] = tested on: Capan-2; assay: Antiproliferative activity against human Capan-2 cells harboring KRAS 12 mutation assessed as inhibition of cell growth incubated for 4 to 7 days; format: functional, cell-based
# [47] = tested on: HT1197; assay: Antiproliferative activity against human HT1197 cells harboring HRAS 61 mutation assessed as inhibition of cell growth incubated for 4 to 7 days; format: functional, cell-based
# [48] = Inhibition of human FPTase using K-RasB peptide as a substrate assessed as inhibition of substrate farnesylation
# [49] = Competitive inhibition of human FPTase using K-RasB peptide as a substrate assessed as inhibition constant by Scintillation proximity assay
compound,measurement,setting,value
CSCCc1c(-c2cccnc2)nn(-c2ccc(Cl)c(Cl)c2)c1OCCCC(=O)N[C@@H](Cc1ccccc1)C(N)=O,Ki,[1],0.8 nM
same,IC50,[2],2000 nM
CC(C)=CCC/C(C)=C/CC/C(C)=C/C(O)P(=O)(O)O (centres undefined),Ki,[3],5.2 nM
CC(C)C[C@H](NC(=O)c1ccc(NC[C@@H](N)CS)cc1-c1cccc2ccccc12)C(=O)O,Activity,[4],65%
same,Activity,[5],40%
same,Activity,[6],60%
CC[C@@H](C)[C@@H](CO[C@@H](Cc1ccccc1)C(=O)CC(CCS(C)(=O)=O)C(=O)O)NC[C@@H](N)CS (some centres undefined),IC50,[7],1.8 nM
O=S(=O)(c1ccc(NO)cc1)N1CCC(=C2c3cc(Cl)ccc3CCc3cccnc32)CC1,IC50,[8],900 nM
CSCC[C@H](CC(=O)[C@H](/C=C\[C@@H](/C=C/[C@@H](N)CS)C(C)C)Cc1ccccc1)C(=O)O,IC50,[9],500 nM
same,IC50,[10],25000 nM
CCCc1c(OCCCCCOc2coc(CO)cc2=O)ccc(Cl)c1Cl,IC50,[11],15000 nM
same,IC50,[12],10200 nM
same,IC50,[13],37100 nM
same,IC50,[14],8000 nM
same,IC50,[15],17300 nM
same,IC50,[16],7000 nM
COC(=O)[C@H](CCSC)CC(=O)[C@H](/C=C\[C@@H](/C=C/[C@@H](N)CS)C(C)C)Cc1ccccc1,Activity,[17],40%
same,Activity,[18],20%
COC(=O)[C@H](CCSC)NC(=O)c1ccc(NC[C@H](N)CS)cc1-c1ccccc1,IC50,[19],14900 nM
same,IC50,[20],41600 nM
same,IC50,[21],6830 nM
same,IC50,[22],29300 nM
same,IC50,[23],25400 nM
same,IC50,[24],12700 nM
N#Cc1ccc(Cn2cncc2CN2CCN(c3cccc(Cl)c3)C(=O)C2)cc1 [L-778123 FREE BASE],IC50,[25],1520 nM
same,IC50,[26],2280 nM
same,IC50,[27],126000 nM
same,Ki,[28],0.3 nM
same,Ki,[29],1.6 nM
same,IC50,[30],101000 nM
same,IC50,[31],1720 nM
same,IC50,[32],70 nM
NC(=O)N1CCC(CC(=O)N2CCC([C@H]3c4ncc(Br)cc4CCc4cc(Cl)cc(Br)c43)CC2)CC1 [LONAFARNIB],AUC,[33],14700 ng·h/mL
same,Cmax,[34],1900 nM
CC(C)=CCC/C(C)=C/CC/C(C)=C/CSc1ccccc1C(=O)O [SALIRASIB],Activity,[35],84%
same,Activity,[36],85%
same,Activity,[37],50%
same,Activity,[38],0.03 cm3
same,EC50,[39],7500 nM
same,Activity,[40],67%
same,Activity,[41],53.8%
same,Activity,[42],64%
same,Activity,[43],53.7%
Cn1cncc1[C@@](N)(c1ccc(Cl)cc1)c1ccc2c(c1)c(-c1cccc(Cl)c1)cc(=O)n2C [TIPIFARNIB],IC50,[44],36 nM
same,IC50,[45],9.5 nM
same,IC50,[46],16 nM
same,IC50,[47],1.7 nM
same,IC50,[48],7.9 nM
same,Ki,[49],0.5 nM
